Measurements published in patent US9485983B2, “Use of connexin channel inhibitors to protect grafts” (Universiteit Gent, priority 2012, dated 2016).
“Also recorded” adds a separate entry of the source.

Assays:
Format in all cases: cell-based
[1] = system: C6 glioma cells stably transfected with Cx43; assay: TUNEL control experiment with staurosporine; conditions: 2 μM, 6 hours
[2] = system: ECs and SMCs of saphenous veins; assay: TUNEL apoptosis assay on cryopreserved/thawed human saphenous veins; conditions: for effect on number of TUNEL-positive cells (in words) / reduction of TUNEL-positive cell death counts (fraction): saphenous veins; for Protection relative to total number of cells (%) / Protection relative to total number of dead cells (%): Veins, Gap27 200 μM; for reduction of TUNEL-positive cell death counts (fraction): 200 μM during cryopreservation, thawing and DMSO washout
Source text: (§1) Tissue samples of human femoral artery and saphenous vein were obtained from deceased donors (age: 45±1.7 years) according to a protocol that was approved by the ethical committee of the University Hospital Ghent, Belgium. […] Exclusion criteria were: presence of ulcers, calcific atheromas, rupture of intima or media, traction lesions due to prelevation in arteries; signs of phlebitis, atheromatosis, parietal abnormalities, or lesions of intima in veins. The vessels were placed in HBSS-HEPES and prior to cryopreservation, DMSO (15%) was added. […] Grafts were cryopreserved at 1° C./minute in a −80° C. freezer and, after two weeks, stored for at least another two weeks in a liquid nitrogen container (−196° C.).
(§2) For vessel analysis and cell death studies, tissues were thawed in a 37° C. water bath and kept on ice before the next steps. DMSO was then progressively washed out by a stepwise reduction of the DMSO concentration in the HBSS-HEPES solution. To that purpose, the blood vessels remained for 4 minutes in HBSS-HEPES solution with, respectively, 10%, 5%, 2.5% and 0% DMSO. In Gap27-treated vessels, the peptide (200 μM) was present during DMSO washout.
(§3) After DMSO washout, vessels were embedded in paraffin. To this purpose, blood vessels were transferred to a neutral buffered 4% formalin solution for fixation during 24 hours and were then embedded in paraffin. Paraffin-embedded vessel specimens were cut into […] serial sections along a transverse plane and were then stained with hematoxylin and eosin for general inspection, immunostained for connexins to establish the expression of various connexin types in the blood vessels or stained for cell death (apoptosis) making use of in situ terminal TdT-mediated dUTP nick end-labeling (TUNEL) with the In Situ Cell Death Detection Kit (Roche, Vilvoorde, Belgium). After any of these staining procedures, images were taken on a Nikon TE300 inverted microscope using a ×10 or ×20 objective and equipped with a Nikon DS-Ri1 cooled color CCD camera (Nikon Belux, Brussels, Belgium).
(§4) Embedded artery or vein sections were deparaffinized, rehydrated through graded alcohol, and permeabilized with 0.1% TRITON® X-100 at room temperature (8 minutes incubation). Slides were rinsed twice in a phosphate-buffered saline (PBS). Apoptosis was detected through in situ terminal deoxynucleotidyl transferase (TdT)-mediated deoxyuridine triphosphate (dUTP) nick end-labeling (TUNEL), using the In Situ Cell Death Detection Kit (Roche, Vilvoorde, Belgium). Slides were incubated with the TUNEL reaction mixture containing TdT and fluorescein-dUTP for 1 hour at 37° C.; thereafter, they were rinsed three times in PBS and mounted as described for immunostaining. […] TUNEL-stained blood vessel tissue sections were examined by epifluorescence microscopy as described for immunostaining. Four areas from each slide were examined and five slides per blood vessel were analyzed. The number of TUNEL-positive cells is given as a percentage of the total number of cells quantified from DAPI-positive counts.

[3] = system: ECs and SMCs of femoral arteries; assay: TUNEL apoptosis assay on cryopreserved/thawed human femoral arteries; conditions: for effect on number of TUNEL-positive cells (in words) / reduction of TUNEL-positive cell death counts (fraction): femoral arteries; for Protection relative to total number of cells (%) / Protection relative to total number of dead cells (%): Arteries, Gap27 200 μM; for reduction of TUNEL-positive cell death counts (fraction): 200 μM during cryopreservation, thawing and DMSO washout
Source text: as §1, §2, §3, §4

[4] = system: bovine oocytes; assay: Fertilization rate of vitrified/thawed COCs; conditions: COCs vitrified/thawed in the presence of Gap27
Procedure: All procedures used were in accordance with the guidance principals for care and use of laboratory animals of the Laboratory Animal Ethical Commission of Ghent University. Bovine cumulus-oocyte complexes (COCs) were aspirated from ovaries collected at a local slaughterhouse. Immature COCs were recovered from the follicular fluid, washed two times in HEPES-TALP (see below under the heading “Pharmacological agents and solutions” of Materials and Methods), and matured for 22 hours in groups of 60 in […] of modified bicarbonate-buffered TCM199 (Gibco BRL, Life Technologies) supplemented with 20% heat-inactivated fetal calf serum (FCS; Sigma-Aldrich) at 38.5° C. in a humidified 5% CO2 incubator. Vitrification was performed in two steps: an equilibration (EQ) and a vitrification step (VS). Equilibration solution was composed of M199/Hanks/HEPES supplemented with 20% fetal calf serum (FCS)+7.5% ethylene glycol+7.5% DMSO. The vitrification solution contained: M199/Hanks/HEPES supplemented with 20% FCS+15% ethylene glycol, 15% DMSO and 0.5 M sucrose. The COCs were washed by transferring them sequentially in three drops of 100 μl EQ solution (3 minutes residence in the first two drops and 6 minutes in the last drop) and then placed stepwise in five 100 μl drops VS solution (5 seconds in each drop except for the fifth that lasted 10 seconds). […]

[5] = system: ECs and SMCs of femoral arteries; assay: TUNEL apoptosis assay on cryopreserved/thawed human femoral arteries; conditions: femoral artery; Gap27 during cryopreservation/thawing only
[6] = system: bovine cumulus-oocyte complexes (COCs); assay: TUNEL cell death assay on COCs after vitrification/thawing
Procedure: Bovine cumulus-oocyte complexes (COCs) were aspirated from ovaries collected at a local slaughterhouse. Immature COCs were recovered from the follicular fluid, washed two times in HEPES-TALP (see below under the heading “Pharmacological agents and solutions” of Materials and Methods), and matured for 22 hours in groups of 60 in 500 mL of modified bicarbonate-buffered TCM199 (Gibco BRL, Life Technologies) supplemented with 20% heat-inactivated fetal calf serum (FCS; Sigma-Aldrich) at 38.5° C. in a humidified 5% CO2 incubator. Vitrification was performed in two steps: an equilibration (EQ) and a vitrification step (VS). Equilibration solution was composed of M199/Hanks/HEPES supplemented with 20% fetal calf serum (FCS)+7.5% ethylene glycol+7.5% DMSO. The vitrification solution contained: M199/Hanks/HEPES supplemented with 20% FCS+15% ethylene glycol, 15% DMSO and 0.5 M sucrose. The COCs were washed by transferring them sequentially in three drops of 100 μl EQ solution (3 minutes residence in the first two drops and 6 minutes in the last drop) and then placed stepwise in five 100 μl drops VS solution (5 seconds in each drop except for the fifth that lasted 10 seconds). The connexin channel inhibitor Gap27 was added to the fifth drop of VS solution at a final concentration of 200 μM (the Gap27 sequence is given below under the heading “Pharmacological agents and solutions” of Materials and Methods). The control condition consisted of a drop solution without any added Gap27. COCs were placed in a manufactured cryotop and transferred immediately to liquid nitrogen (−196° C.).
After 24 hours' storage in liquid nitrogen, the COCs were thawed by transferring them to a warming solution at 37° C. composed of M199/Hanks/HEPES+20% FCS+1.25 M sucrose for 1 minute. This was followed by a three-step wash-out of the hyperosmolar sucrose (reduced from 1.25 M to 0.62, 0.31 and 0 M, respectively; duration of each wash was 3 minutes, 5 minutes and 5 minutes, respectively). In the Gap27 treatment condition, the peptide concentration was gradually diluted over these three washing steps, halving its concentration with each transfer step (reduced from 200 μM in cryopreservation solution to 100, 50 and 0 μM, respectively). In the text that follows, “thawing” denotes the combination of warming and wash out of the hyperosmolarity.
COCs were fixed in neutral buffered 4% formalin solution after thawing. Fixed COCs were permeabilized with 0.1% TRITON® X-100 at room temperature (8-minute incubation). […] Cell death was detected by in situ terminal deoxynucleotidyl transferase (TdT)-mediated deoxyuridine triphosphate (dUTP) nick end-labeling (TUNEL), using a commercial In Situ Cell Death Detection Kit (Roche, Vilvoorde, Belgium). […]

[7] = system: cumulus cells of bovine COCs; assay: TUNEL cell death of COCs after simulated transportation
Procedure: COCs were fixed in neutral buffered 4% formalin solution after thawing. Fixed COCs were permeabilized with 0.1% TRITON® X-100 at room temperature (8-minute incubation). COCs were rinsed twice in a phosphate-buffered saline (PBS, see Pharmacological agents and solutions). Cell death was detected by in situ terminal deoxynucleotidyl transferase (TdT)-mediated deoxyuridine triphosphate (dUTP) nick end-labeling (TUNEL), using a commercial In Situ Cell Death Detection Kit (Roche, Vilvoorde, Belgium). COCs were incubated with the TUNEL reaction mixture containing TdT and fluorescein-dUTP for 1 hour at 37° C.; thereafter, they were rinsed three times in PBS and mounted with an antifade solution containing 4′,6-diamidino-2-phenylindole (DAPI) (Vectashield, Lab Consult) for nuclear staining. Slides were examined by epifluorescence microscopy using a Nikon TE300 inverted microscope with a ×10 objective and equipped with a Nikon DS-Ri1 cooled color CCD camera (Nikon Belux, Brussels, Belgium).
[…] This was performed with or without Gap27 peptide (200 μM) present in the transportation phase medium. Afterward, cell death was evaluated via TUNEL assays as described before.
Testing was performed as to whether Gap27 could improve COC viability upon inclusion in the media during a simulated transportation phase (5 hours total duration, see Materials and Methods) applied after the vitrification/thawing procedure. In these experiments, vitrification/thawing were done under control conditions and Gap27 was only present in the transportation medium.

[8] = system: bovine oocytes; assay: Cleavage rate of vitrified/thawed COCs; conditions: Gap27-treated vitrified/thawed COCs; after 48 hours in culture
Procedure: All procedures used were in accordance with the guidance principals for care and use of laboratory animals of the Laboratory Animal Ethical Commission of Ghent University. Bovine cumulus-oocyte complexes (COCs) were aspirated from ovaries collected at a local slaughterhouse. Immature COCs were recovered from the follicular fluid, washed two times in HEPES-TALP (see below under the heading “Pharmacological agents and solutions” of Materials and Methods), and matured for 22 hours in groups of 60 in […] of modified bicarbonate-buffered TCM199 (Gibco BRL, Life Technologies) supplemented with 20% heat-inactivated fetal calf serum (FCS; Sigma-Aldrich) at 38.5° C. in a humidified 5% CO2 incubator. Vitrification was performed in two steps: an equilibration (EQ) and a vitrification step (VS). Equilibration solution was composed of M199/Hanks/HEPES supplemented with 20% fetal calf serum (FCS)+7.5% ethylene glycol+7.5% DMSO. The vitrification solution contained: M199/Hanks/HEPES supplemented with 20% FCS+15% ethylene glycol, 15% DMSO and 0.5 M sucrose. […]
To determine the cleavage rate, zygotes were washed and placed in groups of 30 in […] droplets of synthetic oviduct fluid (composition see below under “Pharmacological agents and solutions”) supplemented with 5% FCS and cultured at 38.5° C. in 5% CO2, 5% O2, and 90% N2; cleavage rate was determined after 48 hours in culture.

[9] = system: ECs and SMCs of saphenous veins; assay: TUNEL apoptosis assay on cryopreserved/thawed human saphenous veins; conditions: saphenous vein; Gap27 during cryopreservation/thawing only
[10] = cumulus cells, Gap27 during vitrification/thawing
[11] = simulated transportation at 0° C., intact COCs
[12] = simulated transportation at 37° C., cumulus reduced to 1-5 cell layers
[13] = simulated transportation at 37° C., intact cumulus cloud

CN[C@@H]1C[C@H]2O[C@@](C)([C@@H]1OC)n1c3ccccc3c3c4c(c5c6ccccc6n2c5c31)C(=O)NC4 [staurosporine, Staurosporine]
TUNEL positivity (in words) [1]: massive TUNEL positivity

Gap27 with a scrambled peptide sequence: scrambled Gap27 control peptide TFEPIRISITK [reference compound]
effect on number of TUNEL-positive cells (in words) ([2]; ECs and SMCs): no significant effects
effect on number of TUNEL-positive cells (in words) ([3]; ECs and SMCs): no significant effects

Gap27: connexin mimetic peptide, connexin channel inhibitor, SRPTEKTIFII (SEQ ID NO:2) (listed as Homo sapiens)
fertilization rate [4]: 41.2%
Protection relative to total number of cells (%) ([2]; EC): 12 ± 4 (n = 13) %
Protection relative to total number of dead cells (%) ([2]; EC): 51 ± 8 (n = 13) %
Protection relative to total number of cells (%) ([2]; SMC): 6 ± 2 (n = 13) %
Protection relative to total number of dead cells (%) ([2]; SMC): 71 ± 6 (n = 13) %
effect on cell death (in words) ([2]; saphenous vein, ECs and SMCs, Gap27 during DMSO washout only): slightly (but non-significantly) reduced
effect on number of TUNEL-positive cells (in words) ([2]; ECs and SMCs): significantly reduced
reduction of TUNEL-positive cell death counts (fraction) ([2]; ECs): ½
reduction of TUNEL-positive cell death counts (fraction) ([2]; SMCs): more than ½
Protection relative to total number of cells (%) ([3]; EC): 11 ± 4 (n = 11) %
Protection relative to total number of dead cells (%) ([3]; EC): 32 ± 8 (n = 11) %
Protection relative to total number of cells (%) ([3]; SMC): 6 ± 3 (n = 11) %
Protection relative to total number of dead cells (%) ([3]; SMC): 73 ± 7 (n = 11) %
effect on number of TUNEL-positive cells (in words) ([3]; ECs and SMCs): visibly reduced; also recorded: significantly reduced
reduction of TUNEL-positive cell death counts (fraction) ([3]; intimal layer (ECs)): more than ⅓
reduction of TUNEL-positive cell death counts (fraction) ([3]; medial layer (SMCs)): more than ⅔
effect on cell death (in words) ([3]; femoral artery, ECs and SMCs, Gap27 during DMSO washout only): slightly (but non-significantly) reduced
effect on cell death (in words) [5]: larger and statistically significant protective effects
cell death (TUNEL assay) of cumulus cells ([6]; Gap27 200 μM during vitrification/thawing): 1.68%
cell death of the oocytes (in words) ([6]; after vitrification/thawing, whatever the treatment): No cell death of the oocytes
cell mass rescued (effect size relative to the total number of cells) [6, 10]: ~2.4%
reduction relative to the total number of dead cells in control [6, 10]: ~59%
cell death of cumulus cells ([7]; simulated transportation 5 hours at 37° C., intact cumulus cloud, Gap27 200 μM in transportation medium): 13.8%
cell death of cumulus cells [7, 11]: 2.82%
reduction of the dead cell mass [7, 11]: ~53%
rescue effect of the total cell mass [7, 11]: ~3.1%
cell death of cumulus cells ([7]; simulated transportation at 37° C., cumulus cell layer reduced to 1-5 cell layers): 7.54%
reduction of the dead cell mass [7, 12]: ~54%
rescue effect of the total cell mass [7, 12]: ~8.7%
reduction of the mass of dead cells [7, 13]: ~32%
rescue effect relative to the total mass of cells [7, 13]: ~6.5%
cleavage rate [8]: 28%
effect on cell death (in words) [9]: larger and statistically significant protective effects
